The values below come from patent publication US20260356803A1, “Nicotinamide derivatives” (Board of Regents, The University of Texas System, priority 2024, published 2026).

Where two headings read alike, the source gives them in different places.

Series [1] is described as follows: Mouse pharmacokinetics in plasma and brain. In kind it is in vivo, CD1 mice. The note with it: for Kp / Cmax: mouse; for Kp: read-out: brain to blood exposure (AUCBrain/AUCplasma). The method, then: GBM, which is reported to be a potential target for these compounds, is an intracranial tumor, and thus, effective drugs must cross the blood-brain barrier. Therefore, in addition to plasma, we analyzed compound and metabolite levels in mouse brain. Following the administration of a single 5 mg/kg intravenous (IV) injection of either 1 or 9, we quantified the levels of each compound in both plasma and brain. […] The brain to blood exposure, represented by the ratio of the area under the curve between brain and plasma (AUCBrain/AUCplasma), was 3.45 for 1 and 2.85 for 9.
Next, we analyzed the levels of metabolites that result from the metabolism of 1 and 9 through the NAD salvage pathway.
MS conditions were identical. The HPLC conditions were as follows: Solvent A: water including 0.1% formic acid (LC-MS) grade. Solvent B: Acetonitrile including %0.1 formic acid (LC-MS) grade. Gradient condition was 0-3 min: 3% B, 17 min: 60.5% B, 17.1 min Flow to 0.25 mL/min, 17 to 20 min hold 95% B: 20.5-25 min hold 3% B, 24.5 flow to 0.2 mL/min. Total run time: 25 mins.
Data analysis for TOF data was performed using SCIEX MultiQuant software version 3.0.3. For each of the compounds monitored, the theoretical exact m/z was calculated. A range of ±10 ppm was extracted around the theoretical mass and used to create an analytical method in MultiQuant. Extracted areas for parent compounds 1 and 9 in S462 cells and mice were normalized to the internal standard tolbutamide, while parent compounds 1 and 9 in cell-free reactions and all metabolite levels were presented as peak areas without normalization.
Six week old female CD1 mice (Charles River, Wilmington, MA) were dosed with 5 mg/kg 1 or 9 formulated as 5% DMSO/10% PEG400/85% D5W (5% dextrose in water, pH 7.4) in a volume of 0.2 ml/mouse. Animals were euthanized by inhalation overdose of CO2 at various points postdose. Blood was collected by cardiac puncture into K2EDTA tubes and kept on ice until they were spun at 9600×g for 10 min at 4 °C for plasma. Brains were harvested, rinsed briefly with PBS to remove surface adhering blood, weighed and then snap frozen in liquid nitrogen before storing along with plasma at −80 °C until processing. Brains were homogenized in a volume of PBS equal to 3× their weight in g. One hundred microliters of plasma or brain homogenate was mixed with […] of methanol containing 0.15% formic acid and 37.5 ng/ml tolbutamide internal standard. Samples were vortexed for 15 seconds, incubated at RT for 10 min and then spun at 16,100×g. The resulting supernatant was spun a second time and then filtered through 0.2 μm PVDF filters and analyzed by LC-MS. Samples were quantitated in comparison to a standard curve prepared by spiking 1 or 9 into blank plasma or brain homogenate. The limit of quantitation was set as the lowest point on the standard curve that upon back-calculation was within 20% of the nominal value and was at least three-fold above the average peak area observed for blank plasma or brain. The LOQ for 1 was 1 ng/ml in plasma and 5 ng/ml in brain. The LOQ for 9 was 5 ng/ml in plasma and 10 ng/ml for brain homogenate. Brain concentrations were adjusted to ng/g wet tissue weight and then an estimate was made of drug in brain vasculature using the measured plasma concentration and subtracted from the measured brain concentration.^30 Pharmacokinetic parameters were calculated using the noncompartmental analysis tool with sparse sampling in Phoenix WinNonlin (Certara Corp, Princeton, NJ).

Series [2] has as its system NMNAT1 or alcohol dehydrogenase. Kind of series: Counter screen with NMN in place of NAM. Format: biochemical. The note with it: role: inhibitor; 50 μM NMN substituted for NAM. Here is the method: NAMPT activity was measured using a coupled-enzyme assay previously described [Revollo, 2014]. Briefly, reactions consisting of 50 mM Tris pH 8, 0.4 mM PRPP, 2.5 mM ATP, 12 mM MgCl2, 0.02% BSA, 1 μM NAMPT, 77 nM NMNAT1, 10 mM semicarbazide, 30 μg/ml alcohol dehydrogenase were set up in a 384-well plate (50 μl/well). […] The reactions were started by addition of 50 μM NAM. Fluorescence due to NADH formation by alcohol dehydrogenase was measured in a BioTek Cytation 5 plate reader (Agilent, USA) set up for excitation at λ=340 nm and detection of emission at λ=460 nm. To counter screen for NMNAT1 or alcohol dehydrogenase inhibition, the assay was set up above but substituting 50 μM NMN (substrate for NMNAT1) for NAM. No inhibition of was observed under these conditions.

A further series has as its system SARM1. Kind of series: Cytotoxicity in SARM1-knockout versus wild type cells. In kind it is cell-based. The note with it: SARM1-knockout vs wild type. The text has this: Given that vacor, 3-AP, and compound 21 are all metabolized to toxic, NAD-like derivatives through NAMPT and NMNAT, we hypothesized that their anti-cancer activity may also depend on SARM1. To test this, we compared the toxic effects of vacor, 3-AP, and 9 in either wild type cells or cells in which we used CRISPR to silence SARM1. […] These observations highlight that even though these different scaffolds are toxified through the same mechanism, the resulting metabolites may have different activities. We next co-titrated guanosine, which is known to rescue tiazofurin by bypassing IMPDH in guanylate synthesis, with each of the above small molecules. […] To test this hypothesis, we set up in vitro reactions with different combinations of 9, NAMPT and NMNAT. After incubation, metabolites were extracted, reconstituted in aqueous solution and then co-incubated with an established IMPDH2 enzyme assay.

The mark [3] stands for this setting: brain, 5 mg/kg IV single dose, read-out: brain Cmax.
The mark [4] stands for this setting: brain, 5 mg/kg IV, assuming brain density of 1 g/ml, read-out: brain Cmax.
The mark [5] stands for this setting: plasma, 5 mg/kg IV single dose, molar, read-out: plasma maximum concentration (Cmax).
Where [6] appears, read: plasma, 5 mg/kg IV single dose, read-out: plasma maximum concentration (Cmax).

Take `O=C(Nc1cccnc1)c1cccs1` [Compound 1, N-(pyridin-3-yl)thiophene-2-carboxamide]: the brain penetration result in series [1] (5 mg/kg IV) is reported as “brain-penetrant”. Further, the “persistence in brain versus plasma” value in series [1] (5 mg/kg IV) is “persisted longer in the brain than in the plasma”. Moreover, the Kp in series [1] (brain, 5 mg/kg IV) turned out to be 3.45. Moreover, the Cmax in series [1] (setting [3]) was found to be 2220 ng/g; in series [1] (setting [4]), 10.8 µM; in series [1] (setting [5]), 5.65 µM; in series [1] (setting [6]), 1160 ng/mL. For the same compound, the “rapidly cleared from plasma by” value in series [1] (plasma, 5 mg/kg IV) is at most 90 min. Also, in series [2], the “inhibition in counter screen” value is recorded as “No inhibition”.
Consider `O=C(Nc1cccs1)c1cccnc1` [Compound 9, N-(Thiophen-2-yl)nicotinamide], for which, in series [1] (5 mg/kg IV), the brain penetration entry is on record as “brain-penetrant”. For the same compound, in series [1] (5 mg/kg IV), the “persistence in brain versus plasma” value is “persisted longer in the brain than in the plasma”. The Kp in series [1] (brain, 5 mg/kg IV) was 2.85. For the same compound, the Cmax in series [1] (setting [3]) is 1600 ng/g; in series [1] (setting [4]) it was 7.8 µM; in series [1] (setting [5]) it was 23.7 µM; in series [1] (setting [6]), 4830 ng/mL. The “rapidly cleared from plasma by” value in series [1] (plasma, 5 mg/kg IV) is at most 90 min. The “inhibition in counter screen” value in series [2] is on record as “No inhibition”. Also, in the series with SARM1, the “sensitivity of SARM1-knockout cells” value is reported as “equally sensitive”.
